From US10442807B2, “Aryl substituted bicyclic compounds as herbicides” (FMC Corporation, priority 2015, dated 2019)

How the values were obtained:
Assay type in all cases: in vivo
[1] = test system: barnyardgrass (Echinochloa crus-galli); assay: Test A preemergence, directed soil spray, visual injury rating; settings: approx. 10 d, 0 = no effect, 100 = complete control
Source text: (§1) Seeds of plant species selected from barnyardgrass (Echinochloa crus-galli), kochia (Kochia scoparia), ragweed (common ragweed, Ambrosia elation), ryegrass, Italian (Italian ryegrass, Lolium multiflorum), foxtail, giant (giant foxtail, Setaria faberii), and pigweed (Amaranthus retroflexus), were planted into a blend of loam soil and sand and treated preemergence with a directed soil spray using test chemicals formulated in a non-phytotoxic solvent mixture which included a surfactant. At the same time, plants selected from these weed species and also blackgrass (Alopecurus myosuroides), galium (catchweed bedstraw, Galium aparine), wheat (Triticum aestivum), and corn (Zea mays) were planted in pots containing the same blend of loam soil and sand and treated with postemergence applications of test chemicals formulated in the same manner. Plants ranged in height from 2 to 10 cm and were in the one- to two-leaf stage for the postemergence treatment. Treated plants and untreated controls were maintained in a greenhouse for approximately 10 d, after which time all treated plants were compared to untreated controls and visually evaluated for injury. Plant response ratings, summarized in Table A, are based on a 0 to 100 scale where 0 is no effect and 100 is complete control. A dash (-) response means no test result.

[2] = test system: ryegrass, Italian (Italian ryegrass, Lolium multiflorum); assay: as above; settings: approx. 10 d, 0 = no effect, 100 = complete control
Source text: as §1

[3] = test system: kochia (Kochia scoparia); assay: as above; settings: approx. 10 d, 0 = no effect, 100 = complete control
Source text: as §1

[4] = test system: pigweed (Amaranthus retroflexus); assay: as above; settings: approx. 10 d, 0 = no effect, 100 = complete control
Source text: as §1

[5] = test system: ragweed (common ragweed, Ambrosia elation); assay: as above; settings: approx. 10 d, 0 = no effect, 100 = complete control
Source text: as §1

[6] = test system: foxtail, giant (giant foxtail, Setaria faberii); assay: as above; settings: approx. 10 d, 0 = no effect, 100 = complete control
Source text: as §1

[7] = test system: sedge, umbrella (small-flower umbrella sedge, Cyperus difformis); assay: Test B flooded paddy test, visual plant response rating; settings: 250 g ai/ha; applied to paddy water at 2-leaf stage; rated after 13 to 15 days; scale 0 to 100, 0 is no effect, 100 is complete control
Source text: (§2) At time of treatment, test pots were flooded to 3 cm above the soil surface, treated by application of test compounds directly to the paddy water, and then maintained at that water depth for the duration of the test. Treated plants and controls were maintained in a greenhouse for 13 to 15 days, after which time all species were compared to controls and visually evaluated. Plant response ratings, summarized in Table B, are based on a scale of 0 to 100 where 0 is no effect and 100 is complete control. A dash (-) response means no test result.

[8] = test system: barnyardgrass (Echinochloa crus-galli); assay: as above; settings: 250 g ai/ha; applied to paddy water at 2-leaf stage; rated after 13 to 15 days; scale 0 to 100, 0 is no effect, 100 is complete control
Source text: as §2

[9] = test system: ducksalad (Heteranthera limosa); assay: as above; settings: 250 g ai/ha; applied to paddy water at 2-leaf stage; rated after 13 to 15 days; scale 0 to 100, 0 is no effect, 100 is complete control
Source text: as §2

[10] = test system: rice (Oryza sativa); assay: as above; settings: 250 g ai/ha; applied to paddy water at 2-leaf stage; rated after 13 to 15 days; scale 0 to 100, 0 is no effect, 100 is complete control
Source text: as §2

[11] = test system: wheat (Triticum aestivum); assay: Test A postemergence application, visual injury rating; settings: approx. 10 d, 0 = no effect, 100 = complete control
Source text: as §1

[12] = test system: barnyardgrass (Echinochloa crus-galli); assay: as above; settings: approx. 10 d, 0 = no effect, 100 = complete control
Source text: as §1

[13] = test system: ryegrass, Italian (Italian ryegrass, Lolium multiflorum); assay: as above; settings: approx. 10 d, 0 = no effect, 100 = complete control
Source text: as §1

[14] = test system: kochia (Kochia scoparia); assay: as above; settings: approx. 10 d, 0 = no effect, 100 = complete control
Source text: as §1

[15] = test system: pigweed (Amaranthus retroflexus); assay: as above; settings: approx. 10 d, 0 = no effect, 100 = complete control
Source text: as §1

[16] = test system: galium (catchweed bedstraw, Galium aparine); assay: as above; settings: approx. 10 d, 0 = no effect, 100 = complete control
Source text: as §1

[17] = test system: corn (Zea mays); assay: as above; settings: approx. 10 d, 0 = no effect, 100 = complete control
Source text: as §1

[18] = test system: ragweed (common ragweed, Ambrosia elation); assay: as above; settings: approx. 10 d, 0 = no effect, 100 = complete control
Source text: as §1

[19] = test system: foxtail, giant (giant foxtail, Setaria faberii); assay: as above; settings: approx. 10 d, 0 = no effect, 100 = complete control
Source text: as §1

[20] = test system: blackgrass (Alopecurus myosuroides); assay: as above; settings: approx. 10 d, 0 = no effect, 100 = complete control
Source text: as §1

Structure (SMILES) | Barnyardgrass plant response rating (0 to 100 scale) ([1]; 125 g ai/ha) | Barnyardgrass plant response rating (0 to 100 scale) ([1]; 500 g ai/ha) | Ryegrass, Italian plant response rating (0 to 100 scale) ([2]; 125 g ai/ha) | Ryegrass, Italian plant response rating (0 to 100 scale) ([2]; 500 g ai/ha) | Kochia plant response rating (0 to 100 scale) ([3]; 125 g ai/ha) | Kochia plant response rating (0 to 100 scale) ([3]; 500 g ai/ha) | Pigweed plant response rating (0 to 100 scale) ([4]; 125 g ai/ha) | Pigweed plant response rating (0 to 100 scale) ([4]; 500 g ai/ha) | Ragweed plant response rating (0 to 100 scale) ([5]; 125 g ai/ha) | Ragweed plant response rating (0 to 100 scale) ([5]; 500 g ai/ha) | Foxtail, Giant plant response rating (0 to 100 scale) ([6]; 125 g ai/ha) | Foxtail, Giant plant response rating (0 to 100 scale) ([6]; 500 g ai/ha) | Plant response rating, Flood, Sedge, Umbrella [7] | Plant response rating, Flood, Barnyardgrass [8] | Plant response rating, Flood, Ducksalad [9] | Plant response rating, Flood, Rice [10] | Wheat plant response rating (0 to 100 scale) ([11]; 125 g ai/ha) | Wheat plant response rating (0 to 100 scale) ([11]; 500 g ai/ha) | Barnyardgrass plant response rating (0 to 100 scale) ([12]; 125 g ai/ha) | Barnyardgrass plant response rating (0 to 100 scale) ([12]; 500 g ai/ha) | other results
Cc1nnc2n1CC(c1ccc(C(F)(F)F)cc1)C2C(=O)Nc1ccccc1C(F)(F)F (stereo not drawn) [Compound 6] | 0 | 40 | 40 | 60 | 0 | 0 | 0 | 40 | 0 | 0 | 0 | 90 | 0 | 0 | 0 | 0 | 0 | 0 | 0 | 40 | Ryegrass, Italian plant response rating (0 to 100 scale) ([13]; 125 g ai/ha): 0; Ryegrass, Italian plant response rating (0 to 100 scale) ([13]; 500 g ai/ha): 20; Kochia plant response rating (0 to 100 scale) ([14]; 125 g ai/ha): 0; Kochia plant response rating (0 to 100 scale) ([14]; 500 g ai/ha): 0; Pigweed plant response rating (0 to 100 scale) ([15]; 125 g ai/ha): 0; Pigweed plant response rating (0 to 100 scale) ([15]; 500 g ai/ha): 0; Galium plant response rating (0 to 100 scale) ([16]; 125 g ai/ha): 0; Galium plant response rating (0 to 100 scale) ([16]; 500 g ai/ha): 30; Corn plant response rating (0 to 100 scale) ([17]; 125 g ai/ha): 0; Corn plant response rating (0 to 100 scale) ([17]; 500 g ai/ha): 0; Ragweed plant response rating (0 to 100 scale) ([18]; 125 g ai/ha): 0; Ragweed plant response rating (0 to 100 scale) ([18]; 500 g ai/ha): 0; Foxtail, Giant plant response rating (0 to 100 scale) ([19]; 125 g ai/ha): 0; Foxtail, Giant plant response rating (0 to 100 scale) ([19]; 500 g ai/ha): 30; Blackgrass plant response rating (0 to 100 scale) ([20]; 125 g ai/ha): 0; Blackgrass plant response rating (0 to 100 scale) ([20]; 500 g ai/ha): 20
Cc1ccc(C2Cn3cnnc3C2C(=O)Nc2cccc(F)c2F)cc1C (stereo not drawn) [Compound 16] | 70 | 90 | 0 | 60 | 70 | 80 | 0 | 0 | 0 | 50 | 90 | 90 | 0 | 50 | 75 | 15 | 0 | 50 | 60 | 80 | Ryegrass, Italian plant response rating (0 to 100 scale) ([13]; 125 g ai/ha): 0; Ryegrass, Italian plant response rating (0 to 100 scale) ([13]; 500 g ai/ha): 50; Kochia plant response rating (0 to 100 scale) ([14]; 125 g ai/ha): 30; Kochia plant response rating (0 to 100 scale) ([14]; 500 g ai/ha): 30; Pigweed plant response rating (0 to 100 scale) ([15]; 125 g ai/ha): 0; Pigweed plant response rating (0 to 100 scale) ([15]; 500 g ai/ha): 0; Galium plant response rating (0 to 100 scale) ([16]; 125 g ai/ha): 40; Galium plant response rating (0 to 100 scale) ([16]; 500 g ai/ha): 50; Corn plant response rating (0 to 100 scale) ([17]; 125 g ai/ha): 0; Corn plant response rating (0 to 100 scale) ([17]; 500 g ai/ha): 70; Ragweed plant response rating (0 to 100 scale) ([18]; 125 g ai/ha): 0; Ragweed plant response rating (0 to 100 scale) ([18]; 500 g ai/ha): 50; Foxtail, Giant plant response rating (0 to 100 scale) ([19]; 125 g ai/ha): 60; Foxtail, Giant plant response rating (0 to 100 scale) ([19]; 500 g ai/ha): 80; Blackgrass plant response rating (0 to 100 scale) ([20]; 125 g ai/ha): 0; Blackgrass plant response rating (0 to 100 scale) ([20]; 500 g ai/ha): 60
CSc1ccccc1NC(=O)C1c2nnc(C)n2CC1c1ccc(C)c(C)c1 (stereo not drawn) [Compound 14] | 0 | 30 | 0 | 0 | 0 | 0 | 0 | 0 | 0 | 0 | 0 | 60 | 0 | 20 | 60 | 0 | 0 | 0 | 0 | 20 | Ryegrass, Italian plant response rating (0 to 100 scale) ([13]; 125 g ai/ha): 0; Ryegrass, Italian plant response rating (0 to 100 scale) ([13]; 500 g ai/ha): 0; Kochia plant response rating (0 to 100 scale) ([14]; 125 g ai/ha): 0; Kochia plant response rating (0 to 100 scale) ([14]; 500 g ai/ha): 0; Pigweed plant response rating (0 to 100 scale) ([15]; 125 g ai/ha): 0; Pigweed plant response rating (0 to 100 scale) ([15]; 500 g ai/ha): 0; Galium plant response rating (0 to 100 scale) ([16]; 125 g ai/ha): 0; Galium plant response rating (0 to 100 scale) ([16]; 500 g ai/ha): 0; Corn plant response rating (0 to 100 scale) ([17]; 125 g ai/ha): 0; Corn plant response rating (0 to 100 scale) ([17]; 500 g ai/ha): 0; Ragweed plant response rating (0 to 100 scale) ([18]; 125 g ai/ha): 0; Ragweed plant response rating (0 to 100 scale) ([18]; 500 g ai/ha): 0; Foxtail, Giant plant response rating (0 to 100 scale) ([19]; 125 g ai/ha): 0; Foxtail, Giant plant response rating (0 to 100 scale) ([19]; 500 g ai/ha): 20; Blackgrass plant response rating (0 to 100 scale) ([20]; 125 g ai/ha): 0; Blackgrass plant response rating (0 to 100 scale) ([20]; 500 g ai/ha): 20
